Laboratory results from patent US20180155344A1, “TRICYCLIC PIPERIDINE COMPOUNDS” (ACTELION PHARMACEUTICALS LTD, priority 2015, published 2018).
Counter-ions that a name gives are not always drawn.

Biological target: T1, human TPH1 (Homo sapiens, UniProt P17752)
T1 sequence (P17752 1-444): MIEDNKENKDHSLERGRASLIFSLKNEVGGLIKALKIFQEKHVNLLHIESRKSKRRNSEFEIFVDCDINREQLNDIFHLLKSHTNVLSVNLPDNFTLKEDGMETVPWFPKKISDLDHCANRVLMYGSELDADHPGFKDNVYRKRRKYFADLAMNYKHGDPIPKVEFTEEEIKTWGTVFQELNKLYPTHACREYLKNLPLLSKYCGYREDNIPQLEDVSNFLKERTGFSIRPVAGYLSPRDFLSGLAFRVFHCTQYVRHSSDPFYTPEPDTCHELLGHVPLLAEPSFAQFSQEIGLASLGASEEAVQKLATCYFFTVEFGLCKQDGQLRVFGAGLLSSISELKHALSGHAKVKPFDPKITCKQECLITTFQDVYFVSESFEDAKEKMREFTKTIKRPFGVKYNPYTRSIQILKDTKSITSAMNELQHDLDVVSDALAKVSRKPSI
Assay: biochemical
In short: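 Inhibition is derived from 5-hydroxy-L-tryptophan fluorescence (540 nm emission, 300 nm excitation) after perchloric acid stop, relative to DMSO vehicle. Recombinant full-length human enzyme (40-80 nM) reacts with 40 μM tryptophan plus 100 μM methyltetrahydropterin, pH 7.6 Tris/DTT/catalase, 15° C, 60 min.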

For `COCCOc1ccc(C2c3c(nc4ccccn34)CCN2C(=O)COc2ccc(C(=O)NC3CC3)nc2Cl)c(F)c1` (stereo not shown) [Example 1.21.1, 6-chloro-N-cyclopropyl-5-(2-(1-(2-fluoro-4-(2-methoxyethoxy)phenyl)-3,4-dihydroimidazo[1,2-a:5,4-c′]dipyridin-2(1H)-yl)-2-oxoethoxy)picolinamide], the IC50 was 54 nM.
Molecule `COCCOc1ccc(C2c3c(nc4ccccn34)CCN2C(=O)COc2ccc(NS(C)(=O)=O)nc2Cl)c(F)c1` (stereo not shown) [Example 1.21.2, N-(6-chloro-5-(2-(1-(2-fluoro-4-(2-methoxyethoxy)phenyl)-3,4-dihydroimidazo[1,2-a:5,4-c′]dipyridin-2(1H)-yl)-2-oxoethoxy)pyridin-2-yl)methanesulfonamide] has an IC50 of 79 nM.
In the case of `O=C(NC1CC1)c1ccc(OCC(=O)N2CCc3nc4ccccn4c3C2c2ccc(OCCO)cc2F)c(Cl)n1` (stereo not shown) [Example 1.22.1, 6-chloro-N-cyclopropyl-5-(2-(1-(2-fluoro-4-(2-hydroxyethoxy)phenyl)-3,4-dihydroimidazo[1,2-a:5,4-c′]dipyridin-2(1H)-yl)-2-oxoethoxy)picolinamide], the IC50 is reported as 80 nM.
Work on `CS(=O)(=O)Nc1ccc(OCC(=O)N2CCc3nc4ccccn4c3C2c2ccc(OCCO)cc2F)c(Cl)n1` (stereo not shown) [Example 1.22.2, N-(6-Chloro-5-(2-(1-(2-fluoro-4-(2-hydroxyethoxy)phenyl)-3,4-dihydroimidazo[1,2-a:5,4-c′]dipyridin-2(1H)-yl)-2-oxoethoxy)pyridin-2-yl)methanesulfonamide] yielded an IC50 of 38 nM.
`COc1ccc(C2c3c(nc4cc(Cl)ccn34)CCN2C(=O)COc2ccc3ccccc3c2)cc1OC` (stereo not shown) [Example 2.1.1, 1-(7-chloro-1-(3,4-dimethoxyphenyl)-3,4-dihydroimidazo[1,2-a:5,4-c′]dipyridin-2(1H)-yl)-2-(naphthalen-2-yloxy)ethan-1-one hydrochloride] gave an IC50 of 39 nM.
With `COc1ccc(C2c3c(nc4cc(Cl)ccn34)CCN2C(=O)COc2ccc(CN3CCOCC3)cc2Cl)cc1OC` (stereo not shown) [Example 2.1.2, 1-(7-chloro-1-(3,4-dimethoxyphenyl)-3,4-dihydroimidazo[1,2-a:5,4-c′]dipyridin-2(1H)-yl)-2-(2-chloro-4-(morpholinomethyl)phenoxy)ethan-1-one] the IC50 was 66 nM.
Work on `COc1ccc(C2c3c(nc4cc(Cl)ccn34)CCN2C(=O)COc2ccc(CO)cc2Cl)cc1OC` (stereo not shown) [Example 2.1.3, 1-(7-chloro-1-(3,4-dimethoxyphenyl)-3,4-dihydroimidazo[1,2-a:5,4-c′]dipyridin-2(1H)-yl)-2-(2-chloro-4-(hydroxymethyl)phenoxy)ethan-1-one] yielded an IC50 of 402 nM.
In the case of `COc1ccc(C2c3c(nc4cc(Cl)ccn34)CCN2C(=O)COc2ccc([N+](=O)[O-])cc2Cl)cc1OC` (stereo not shown) [Example 2.1.4, 1-(7-chloro-1-(3,4-dimethoxyphenyl)-3,4-dihydroimidazo[1,2-a:5,4-c′]dipyridin-2(1H)-yl)-2-(2-chloro-4-nitrophenoxy)ethan-1-one], the IC50 is reported as 390 nM.
`COc1ccc(C2c3c(nc4cc(Cl)ccn34)CCN2C(=O)COc2ccc(CN3CCOCC3)nc2Cl)cc1OC` (stereo not shown) [Example 2.1.5, 1-(7-chloro-1-(3,4-dimethoxyphenyl)-3,4-dihydroimidazo[1,2-a:5,4-c′]dipyridin-2(1H)-yl)-2-((2-chloro-6-(morpholinomethyl)pyridin-3-yl)oxy)ethan-1-one] showed an IC50 of 316 nM.
In the case of `COc1ccc(C2c3c(nc4cc(Cl)ccn34)CCN2C(=O)COc2ccc(Cl)cc2Cl)cc1OC` (stereo not shown) [Example 2.1.6, 1-(7-chloro-1-(3,4-dimethoxyphenyl)-3,4-dihydroimidazo[1,2-a:5,4-c′]dipyridin-2(1H)-yl)-2-(2,4-dichlorophenoxy)ethan-1-one], the IC50 is reported as 53 nM.
Work on `COc1ccc(C2c3c(nc4cc(Cl)ccn34)CCN2C(=O)COc2ccc(N3CCOCC3)cc2Cl)cc1OC` (stereo not shown) [Example 2.1.7, 1-(7-chloro-1-(3,4-dimethoxyphenyl)-3,4-dihydroimidazo[1,2-a:5,4-c′]dipyridin-2(1H)-yl)-2-(2-chloro-4-morpholinophenoxy)ethan-1-one] yielded an IC50 of 34 nM.
`O=C(COc1ccc(CN2CCOCC2)cc1Cl)N1CCc2nc3cc(Cl)ccn3c2C1c1cccnc1F` (stereo not shown) [Example 2.2.1, 1-(7-chloro-1-(2-fluoropyridin-3-yl)-3,4-dihydroimidazo[1,2-a:5,4-c′]dipyridin-2(1H)-yl)-2-(2-chloro-4-(morpholinomethyl)phenoxy)ethan-1-one] showed an IC50 of 269 nM.
Work on `O=C(COc1ccc(N2CCOCC2)cc1Cl)N1CCc2nc3cc(Cl)ccn3c2[C@H]1c1cccnc1F` [Example 2.2.2, 1-((1R)-7-chloro-1-(2-fluoropyridin-3-yl)-3,10a-dihydroimidazo[1,2-a:5,4-c′]dipyridin-2(1H)-yl)-2-(2-chloro-4-morpholinophenoxy)ethan-1-one] yielded an IC50 of 124 nM.
`COc1ccc(C2c3c(nc4cc(Cl)ccn34)CCN2C(=O)COc2ccc(CN3CCOCC3)cc2Cl)c(F)c1` (stereo not shown) [Example 2.3.1, 1-(7-chloro-1-(2-fluoro-4-methoxyphenyl)-3,4-dihydroimidazo[1,2-a:5,4-c′]dipyridin-2(1H)-yl)-2-(2-chloro-4-(morpholinomethyl)phenoxy)ethan-1-one] showed an IC50 of 8 nM.
For `COc1ccc(C2c3c(nc4cc(Cl)ccn34)CCN2C(=O)COc2ccc(CN3CCOCC3)nc2Cl)c(F)c1` (stereo not shown) [Example 2.3.2, 1-(7-chloro-1-(2-fluoro-4-methoxyphenyl)-3,4-dihydroimidazo[1,2-a:5,4-c′]dipyridin-2(1H)-yl)-2-((2-chloro-6-(morpholinomethyl)pyridin-3-yl)oxy)ethan-1-one], the IC50 was 59 nM.
In the case of `COc1ccc(C2c3c(nc4cc(Cl)ccn34)CCN2C(=O)COc2nn(C)c(C(F)(F)F)c2Cl)c(F)c1` (stereo not shown) [Example 2.3.3, 1-(7-chloro-1-(2-fluoro-4-methoxyphenyl)-3,4-dihydroimidazo[1,2-a:5,4-c′]dipyridin-2(1H)-yl)-2-((4-chloro-1-methyl-5-(trifluoromethyl)-1H-pyrazol-3-yl)oxy)ethan-1-one], the IC50 is reported as 208 nM.
`COc1ccc([C@@H]2c3c(nc4cc(Cl)ccn34)CCN2C(=O)COc2ccc(N3CCOCC3)cc2Cl)c(F)c1` [Example 2.3.4, 1-((1R)-7-chloro-1-(2-fluoro-4-methoxyphenyl)-3,10a-dihydroimidazo[1,2-a:5,4-c′]dipyridin-2(1H)-yl)-2-(2-chloro-4-morpholinophenoxy)ethan-1-one] showed an IC50 of 12 nM.
Molecule `CS(=O)(=O)Nc1ccc(OCC(=O)N2CCc3nc4cc(Cl)ccn4c3C2c2ccc(Cl)cc2F)c(Cl)n1` (stereo not shown) [Example 2.4.1, N-(6-chloro-5-(2-(7-chloro-1-(4-chloro-2-fluorophenyl)-3,4-dihydroimidazo[1,2-a:5,4-c′]dipyridin-2(1H)-yl)-2-oxoethoxy)pyridin-2-yl)methanesulfonamide] has an IC50 of 8 nM.
Molecule `COc1ccc([C@@H]2c3c(nc4cc(Cl)ccn34)CCN2C(=O)COc2ccc(N3CCOCC3)cc2Cl)cn1` [Example 2.5.1, 1-((1R)-7-chloro-1-(6-methoxypyridin-3-yl)-3,10a-dihydroimidazo[1,2-a:5,4-c′]dipyridin-2(1H)-yl)-2-(2-chloro-4-morpholinophenoxy)ethan-1-one] has an IC50 of 89 nM.
`CC(C)c1noc(C2c3c(nc4cc(Cl)ccn34)CCN2C(=O)COc2ccc(N3CCOCC3)nc2Cl)n1` (stereo not shown) [Example 2.6.1, 1-(7-chloro-1-(3-isopropyl-1,2,4-oxadiazol-5-yl)-3,4-dihydroimidazo[1,2-a:5,4-c′]dipyridin-2(1H)-yl)-2-((2-chloro-6-morpholinopyridin-3-yl)oxy)ethan-1-one] showed an IC50 of 225 nM.
`COc1ccc(COc2cc(C3c4c(nc5cc(Cl)ccn45)CCN3C(=O)COc3ccc4ccccc4c3)ccc2OC)cc1` (stereo not shown) [Example 2.7.1, 1-(7-chloro-1-(4-methoxy-3-((4-methoxybenzyl)oxy)phenyl)-3,4-dihydroimidazo[1,2-a:5,4-c′]dipyridin-2(1H)-yl)-2-(naphthalen-2-yloxy)ethan-1-one] was tested, and the IC50 was 60 nM.
Molecule `COc1ccc(C2c3c(nc4cc(Cl)ccn34)CCN2C(=O)COc2ccc3ccccc3c2)cc1O` (stereo not shown) [Example 2.8.1, 1-(7-chloro-1-(3-hydroxy-4-methoxyphenyl)-3,4-dihydroimidazo[1,2-a:5,4-c′]dipyridin-2(1H)-yl)-2-(naphthalen-2-yloxy)ethan-1-one] has an IC50 of 219 nM.
For `COc1ccc(C2c3c(nc4cc(Cl)ccn34)CCN2C(=O)COc2ccc(CN3CCOCC3)cc2Cl)cc1O` (stereo not shown) [Example 2.8.2, 1-(7-chloro-1-(3-hydroxy-4-methoxyphenyl)-3,4-dihydroimidazo[1,2-a:5,4-c′]dipyridin-2(1H)-yl)-2-(2-chloro-4-(morpholinomethyl)phenoxy)ethan-1-one], the IC50 was 154 nM.
Molecule `COc1ccc(C2c3c(nc4cc(Cl)ccn34)CCN2C(=O)COc2ccc3ccccc3c2)cc1OC[C@@H](O)CO` (stereo partly drawn) [Example 2.9.1, 1-(7-chloro-1-(3-((S)-2,3-dihydroxypropoxy)-4-methoxyphenyl)-3,4-dihydroimidazo[1,2-a:5,4-c′]dipyridin-2(1H)-yl)-2-(naphthalen-2-yloxy)ethan-1-one] has an IC50 of 30 nM.
`COc1ccc(C2c3c(nc4cc(Cl)ccn34)CCN2C(=O)COc2ccc3ccccc3c2)cc1OC[C@H](O)CO` (stereo partly drawn) [Example 2.10.1, 1-(7-chloro-1-(3-((R)-2,3-dihydroxypropoxy)-4-methoxyphenyl)-3,4-dihydroimidazo[1,2-a:5,4-c′]dipyridin-2(1H)-yl)-2-(naphthalen-2-yloxy)ethan-1-one] was tested, and the IC50 was 34 nM.
